Source: ChEMBL document CHEMBL6109182, “Regio- and Stereoselective Synthesis of Nitro-fatty Acids as NRF2 Pathway Activators Working under Ambient or Hypoxic Conditions” (J Med Chem, 2025)
The source made the active and inactive calls. No cut-off for these calls is given here.

Assays:
[1] = molecular target: T1, Nuclear factor erythroid 2-related factor 2 (Mus musculus) (UniProt Q60795); assay: Induction of NRF2 stabilization in C57BL/6 mouse bone marrow cells exposed to 21% oxygen at 2 uM incubated for 1 hr; assay type: cell-based; details: Bone marrow cell
T1 sequence (whole entry): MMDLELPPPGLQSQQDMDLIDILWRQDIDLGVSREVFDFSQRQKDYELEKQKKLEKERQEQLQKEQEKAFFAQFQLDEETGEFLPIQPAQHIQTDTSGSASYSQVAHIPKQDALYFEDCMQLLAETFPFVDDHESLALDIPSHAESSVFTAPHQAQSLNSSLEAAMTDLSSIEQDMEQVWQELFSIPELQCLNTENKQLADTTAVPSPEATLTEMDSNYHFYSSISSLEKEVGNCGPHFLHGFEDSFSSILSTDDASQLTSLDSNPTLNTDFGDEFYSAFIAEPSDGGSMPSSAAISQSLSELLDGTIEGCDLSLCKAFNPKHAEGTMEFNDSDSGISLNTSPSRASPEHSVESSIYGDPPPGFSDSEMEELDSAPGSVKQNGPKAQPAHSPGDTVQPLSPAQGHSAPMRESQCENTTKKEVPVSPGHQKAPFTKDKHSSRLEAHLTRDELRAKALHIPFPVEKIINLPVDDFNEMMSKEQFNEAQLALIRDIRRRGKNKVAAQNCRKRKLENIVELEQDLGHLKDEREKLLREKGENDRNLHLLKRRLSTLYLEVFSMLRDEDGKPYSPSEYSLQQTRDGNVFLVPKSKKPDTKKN

[2] = molecular target: T1, Nuclear factor erythroid 2-related factor 2 (Mus musculus); assay: Activation of NRF2 in C57BL/6 mouse bone marrow cells exposed to 4% oxygen at 2 uM incubated for 1 hr; assay type: cell-based; details: Bone marrow cell
[3] = molecular target: T1, Nuclear factor erythroid 2-related factor 2 (Mus musculus); assay: Activation of NRF2 in C57BL/6 mouse bone marrow cells assessed as increase in Gclm gene expression exposed to 1% oxygen at 2 uM incubated for 4 hrs by qRT-PCR analysis; assay type: cell-based; details: Bone marrow cell
[4] = molecular target: T1, Nuclear factor erythroid 2-related factor 2 (Mus musculus); assay: Activation of NRF2 in C57BL/6 mouse bone marrow cells assessed as increase in Hmox1 gene expression exposed to 4% oxygen at 2 uM incubated for 4 hrs by qRT-PCR analysis; assay type: cell-based; details: Bone marrow cell
[5] = molecular target: T1, Nuclear factor erythroid 2-related factor 2 (Mus musculus); assay: Activation of NRF2 in C57BL/6 mouse bone marrow cells exposed to 1% oxygen at 2 uM incubated for 1 hr; assay type: cell-based; details: Bone marrow cell
[6] = molecular target: T1, Nuclear factor erythroid 2-related factor 2 (Mus musculus); assay: Induction of NRF2 stabilization in C57BL/6 mouse bone marrow cells exposed to 1% oxygen at 2 uM incubated for 1 hr; assay type: cell-based; details: Bone marrow cell
[7] = molecular target: T1, Nuclear factor erythroid 2-related factor 2 (Mus musculus); assay: Activation of NRF2 in C57BL/6 mouse bone marrow cells assessed as increase in Gclm gene expression exposed to 4% oxygen at 2 uM incubated for 4 hrs by qRT-PCR analysis; assay type: cell-based; details: Bone marrow cell
[8] = molecular target: T1, Nuclear factor erythroid 2-related factor 2 (Mus musculus); assay: Activation of NRF2 in C57BL/6 mouse bone marrow cells assessed as increase in Hmox1 gene expression exposed to 1% oxygen at 2 uM incubated for 4 hrs by qRT-PCR analysis; assay type: cell-based; details: Bone marrow cell
[9] = molecular target: T1, Nuclear factor erythroid 2-related factor 2 (Mus musculus); assay: Induction of NRF2 stabilization in C57BL/6 mouse bone marrow cells exposed to 4% oxygen at 2 uM incubated for 1 hr; assay type: cell-based; details: Bone marrow cell
[10] = molecular target: T1, Nuclear factor erythroid 2-related factor 2 (Mus musculus); assay: Activation of NRF2 in C57BL/6 mouse bone marrow cells exposed to 21% oxygen at 2 uM incubated for 1 hr; assay type: cell-based; details: Bone marrow cell
Bone marrow cell = assay: Upregulation of Nfe2l2 gene expression in C57BL/6 mouse bone marrow cells exposed to 4% oxygen at 2 uM incubated for 4 hrs by qRT-PCR analysis; assay type: functional, cell-based
[11] = molecular target: T1, Nuclear factor erythroid 2-related factor 2 (Mus musculus); assay: Activation of NRF2 in C57BL/6 mouse bone marrow cells assessed as increase in GCLM level exposed to 1% oxygen at 2 uM incubated for 7 hrs by Western blot analysis; assay type: cell-based; details: Bone marrow cell
[12] = molecular target: T1, Nuclear factor erythroid 2-related factor 2 (Mus musculus); assay: Activation of NRF2 in C57BL/6 mouse bone marrow cells assessed as increase in GCLM level exposed to 21% oxygen at 2 uM incubated for 7 hrs by Western blot analysis; assay type: cell-based; details: Bone marrow cell
[13] = molecular target: T1, Nuclear factor erythroid 2-related factor 2 (Mus musculus); assay: Activation of NRF2 in C57BL/6 mouse bone marrow cells assessed as nuclear translocation of NRF2 exposed to 1% oxygen at 2 uM incubated for 1 hr by Western blot analysis; assay type: cell-based; details: Bone marrow cell
[14] = molecular target: T1, Nuclear factor erythroid 2-related factor 2 (Mus musculus); assay: Activation of NRF2 in C57BL/6 mouse bone marrow cells assessed as nuclear translocation of NRF2 exposed to 1% oxygen at 2 uM incubated for 1 hr by IHC analysis; assay type: cell-based; details: Bone marrow cell, filed as activator
[15] = molecular target: T1, Nuclear factor erythroid 2-related factor 2 (Mus musculus); assay: Activation of NRF2 in C57BL/6 mouse bone marrow cells assessed as increase in HO-1 level exposed to 21% oxygen at 2 uM incubated for 4 hrs by Western blot analysis; assay type: cell-based; details: Bone marrow cell, filed as activator
[16] = molecular target: T1, Nuclear factor erythroid 2-related factor 2 (Mus musculus); assay: Activation of NRF2 in C57BL/6 mouse bone marrow cells assessed as fold increase in HO-1 level exposed to hypoxic condition at 2 uM incubated for 4 hrs by Western blot analysis; assay type: cell-based; details: Bone marrow cell, filed as activator
[17] = molecular target: T1, Nuclear factor erythroid 2-related factor 2 (Mus musculus); assay: Activation of NRF2 in C57BL/6 mouse bone marrow cells assessed as fold increase in HO-1 level exposed to 1% oxygen at 2 uM incubated for 4 hrs by Western blot analysis relative to control; assay type: cell-based; details: Bone marrow cell, filed as activator

Row | SMILES | Activity [1] | Activity ([2]; filed as activator) | Activity ([5]; filed as activator) | Activity [6] | Activity [9] | Activity [10] | Activity [15] | Activity ([11]; filed as activator) | Activity ([12]; filed as activator) | Activity ([13]; filed as activator) | Activity ([3]; filed as activator) | Activity ([4]; filed as activator) | Activity ([7]; filed as activator) | Activity ([8]; filed as activator) | Activity (Bone marrow cell) | further results
1 | CCCCCCC=C/C=C(\CCCCCCCC(=O)O)[N+](=O)[O-] | Active | Active | Active | Active | Active | inactive | – | – | – | – | Active; Compound Exhibited Upregulation That Was Dependent On Oxygen Levels Or Specific Target Genes | Active; Compound Exhibited Upregulation That Was Dependent On Oxygen Levels Or Specific Target Genes | Active; Compound Exhibited Upregulation That Was Dependent On Oxygen Levels Or Specific Target Genes | Active; Compound Exhibited Upregulation That Was Dependent On Oxygen Levels Or Specific Target Genes | inactive | –
2 | CCCCCCCCC(CCCCCCCCC(=O)O)[N+](=O)[O-] (configuration not stated) | Active | – | – | Active | Active | inactive | – | – | – | – | – | – | – | – | inactive | Activity [2]: inactive; Activity [3]: inactive; Activity [4]: inactive; Activity [5]: inactive; Activity [11]: inactive; Activity [7]: inactive; Activity [8]: inactive; Activity [12]: inactive; Activity [13]: inactive
3 | CCCCC/C=C\C/C(=C\CCCCCCCC(=O)O)[N+](=O)[O-] | Active | Active | – | Active | Active | inactive | – | – | Active | – | Active; Compound Exhibited Upregulation That Was Dependent On Oxygen Levels Or Specific Target Genes | Active; Compound Exhibited Upregulation That Was Dependent On Oxygen Levels Or Specific Target Genes | Active; Compound Exhibited Upregulation That Was Dependent On Oxygen Levels Or Specific Target Genes | Active; Compound Exhibited Upregulation That Was Dependent On Oxygen Levels Or Specific Target Genes | inactive | Activity [16]: Active

More lines, main results first:

Row | Activity [1] | Activity ([2]; filed as activator) | Activity ([5]; filed as activator) | Activity [6] | Activity [9] | Activity [10] | Activity [15] | Activity ([11]; filed as activator) | Activity ([12]; filed as activator) | Activity ([13]; filed as activator) | SMILES | Activity ([3]; filed as activator) | Activity ([4]; filed as activator) | Activity ([7]; filed as activator) | Activity ([8]; filed as activator) | Activity (Bone marrow cell) | further results
4 | Active | – | Active | Active | Active | inactive | Active | Active | Active | Active | CCCCCCCC/C(=C\CCCCCCCC(=O)O)[N+](=O)[O-] | Active | Active | Active | Active | inactive | Activity [14]: Active
5 | Active | – | Active | Active | Active | inactive | Active | Active | Active | Active | CCCCCCCC/C=C(\CCCCCCCC(=O)O)[N+](=O)[O-] | Active | Active | Active | Active | Active | fold change (FC) [17]: 1.8
